Reference: patent US20230339991A1, “HYPOXIA-ACTIVATED DNA ALKYLATING AGENT AND MEDICAL USE THEREOF” (ASCENTAWITS PHARMACEUTICALS, LTD., priority 2020, published 2023)
“And” between values parts separate entries of the source, which are not always exact repeats. Equal entries are not always repeated.

Experiments:
[1] = tested on: human liver cancer HepG2 subcutaneous xenograft; experiment: Human liver cancer HepG2 subcutaneous xenograft model; format: in vivo, BALB/c nude mice
Excerpt: BALB/c nude mice were subcutaneously inoculated with human liver cancer HepG2 cells to establish human liver cancer subcutaneous transplantation tumor model.

[2] = tested on: HuPrime pancreatic cancer PA3546 subcutaneous xenograft PDX tumor; experiment: PA3546 human pancreatic cancer subcutaneous PDX model; conditions: 120 mg/kg i.p. QW×3; Day 25
Protocol: BALB/c nude mice were subcutaneously inoculated with HuPrime® model PA3546 tumor blocks to establish human pancreatic cancer subcutaneous transplantation tumor model. […] Efficacy was evaluated according to the relative tumor inhibition rate TGI (%), and safety was evaluated according to the change in body weight and the death of animals.

[3] = Plasma stability, human; format: in vitro ADME; conditions: Human plasma; after 30 minutes; 5 μM; 37° C.
Protocol: (§1) The pH of the plasma was checked and recorded. Note: a.
(§2) The final concentration of solvent was 0.5%.
(§3) The assay is performed in duplicate.

[4] = Plasma stability, mouse; format: in vitro ADME; conditions: Mouse plasma; after 30 minutes
Protocol: as §1, §2, §3

[5] = Plasma stability, monkey; format: in vitro ADME; conditions: Monkey plasma; after 30 minutes
Protocol: as §1, §2, §3

[6] = Plasma stability, rat; conditions: Rat plasma; after 30 minutes
Protocol: (§4) The frozen plasma was immediately melted in a water bath of 37° C. The plasma was centrifuged at 3, 220 g for 10 minutes to remove the blood clots and the supernatant was collected into a new test tube. The pH of the plasma was checked and recorded. Note: a. Only plasma that has been melted no more than twice since arrival was used; b. Only plasma in the range of pH 7 to pH 8 was used.
(§5) 1 mM of working solutions of the test compound and the control compound mevinolin were prepared in DMSO. 1 mM of the working solution of the control compound solution in […] was prepared in acetonitrile. 4 μL of the working solution was added to 796 μL of pre-incubated plasma to achieve 5 μM of final concentration. The final concentration of solvent was 0.5%.
[…] The assay is performed in duplicate. At the end of the two hour incubation, 300 μL of quenched solution at room temperature (acetonitrile containing internal standards (acetonitrile, 100 nM Alprazolam, 500 nM Labetalol and 2 μM ketoprofen)) was added to terminate the reaction. Samples at time 0 were prepared by adding 50 μL of standard addition plasma to the new test tubes with 300 μL of quenched solution at room temperature. The test tubes were mixed by vortex for 5 minutes. The samples in the plates were centrifuged at 3, 220×g for 30 minutes at 4° C. to precipitate the proteins. 100 μL of supernatant was transferred to a new plate. The supernatant was diluted with 100 μL of water, mixed well and analysed using LC-MS/MS.

[7] = Plasma stability, dog; conditions: Dog plasma; after 30 minutes
Protocol: as §4, §5
The aliquots of 50 μL of the standard addition plasma were added to new test tubes and incubated in the water bath of 37° C. at approximately 60 rpm for 2 hours. The assay is performed in duplicate. At the end of the two hour incubation, 300 μL of quenched solution at room temperature (acetonitrile containing internal standards (acetonitrile, 100 nM Alprazolam, 500 nM Labetalol and 2 μM ketoprofen)) was added to terminate the reaction. Samples at time 0 were prepared by adding 50 μL of standard addition plasma to the new test tubes with 300 μL of quenched solution at room temperature. The test tubes were mixed by vortex for 5 minutes. The samples in the plates were centrifuged at 3, 220×g for 30 minutes at 4° C. to precipitate the proteins. 100 μL of supernatant was transferred to a new plate. The supernatant was diluted with 100 μL of water, mixed well and analysed using LC-MS/MS.

[8] = tested on: human lung cancer NCI-H460-Luc2 intracranial transplantation tumor; conditions: 20 mg/kg i.p. QW×3; 11 days after grouping
Protocol: BALB/c nude mice were inoculated intracranially with human lung cancer NCI-H460-Luc2 cells to establish human lung cancer intracranial transplantation tumor model. […] The relative tumor inhibition rate TGI (%) was calculated based on tumor biofluorescence value and the efficacy was evaluated.

[9] = biological target: P-gp (Homo sapiens, UniProt P08183); experiment: P-gp substrate evaluation, MDCKII-MDR1 penetration test; conditions: dog; for Papp A→B at 2 h / Papp B→A at 2 h: MDCK-MDR1
Sequence of P-gp (P08183 whole entry): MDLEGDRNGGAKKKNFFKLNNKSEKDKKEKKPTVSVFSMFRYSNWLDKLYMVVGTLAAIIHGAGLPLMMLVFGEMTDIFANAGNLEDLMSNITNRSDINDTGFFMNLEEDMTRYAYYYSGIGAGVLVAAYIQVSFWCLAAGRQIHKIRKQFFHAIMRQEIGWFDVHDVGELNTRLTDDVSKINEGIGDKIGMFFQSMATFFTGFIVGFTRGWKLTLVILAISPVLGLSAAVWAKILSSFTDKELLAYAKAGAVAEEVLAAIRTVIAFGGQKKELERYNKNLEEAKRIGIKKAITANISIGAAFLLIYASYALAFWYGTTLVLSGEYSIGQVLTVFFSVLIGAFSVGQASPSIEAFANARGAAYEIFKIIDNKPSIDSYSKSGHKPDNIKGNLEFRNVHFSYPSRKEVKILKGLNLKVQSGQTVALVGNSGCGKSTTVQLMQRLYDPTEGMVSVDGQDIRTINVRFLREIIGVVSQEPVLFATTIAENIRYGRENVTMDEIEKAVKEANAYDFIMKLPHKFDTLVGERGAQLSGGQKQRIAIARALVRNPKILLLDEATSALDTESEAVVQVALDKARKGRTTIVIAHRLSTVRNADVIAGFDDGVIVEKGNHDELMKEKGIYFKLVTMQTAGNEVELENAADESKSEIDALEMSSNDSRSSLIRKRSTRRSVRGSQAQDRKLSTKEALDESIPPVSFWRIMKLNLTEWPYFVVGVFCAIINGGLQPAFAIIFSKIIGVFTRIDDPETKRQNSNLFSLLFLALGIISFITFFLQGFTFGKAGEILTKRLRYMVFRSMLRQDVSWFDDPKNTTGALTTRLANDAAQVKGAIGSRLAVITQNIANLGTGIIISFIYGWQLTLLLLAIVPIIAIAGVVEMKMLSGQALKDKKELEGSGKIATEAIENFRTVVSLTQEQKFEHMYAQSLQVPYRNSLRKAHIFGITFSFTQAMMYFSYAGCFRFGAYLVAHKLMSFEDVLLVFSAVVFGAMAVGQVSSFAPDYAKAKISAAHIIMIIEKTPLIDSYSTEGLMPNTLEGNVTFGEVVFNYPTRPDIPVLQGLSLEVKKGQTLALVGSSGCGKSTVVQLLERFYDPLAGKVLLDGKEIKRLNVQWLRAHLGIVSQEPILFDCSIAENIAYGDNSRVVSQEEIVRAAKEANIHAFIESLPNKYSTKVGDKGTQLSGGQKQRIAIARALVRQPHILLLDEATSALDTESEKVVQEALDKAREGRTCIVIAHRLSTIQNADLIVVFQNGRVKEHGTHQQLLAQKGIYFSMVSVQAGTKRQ
Protocol: (1) MDCKII-MDR1 cells were cultured in the cell culture bottle. The conditions of the incubator were 37° C., 5% of CO2, and 95% of the relative humidity. When the cell growth confluence was up to 70-90%, the cells were inoculated to the transwell.
The cell suspension was transferred to the upper compartment of the 96-well transwell, wherein each upper compartment contains 50 μL of the cell suspension. The final inoculum density was 5.45×10^5 cells/cm^2.
(1) The transwell culture plate of the MDCKII-MDRT cells was taken out from the incubator. The cell monolayer membrane was rinsed two times with the buffer solution and incubated at 37° C. for 30 min.
(2) The transport rate that the compound was transported from the top-end to the base-end was tested. 75 μL of the buffer solution contained the sample was added to each upper compartment (top-end), and 235 μL of the buffer solution was added to each lower compartment (base-end).
(3) The transport rate that the compound was transported from the base-end to the top-end was tested. 75 μL of the buffer solution was added to each upper compartment (top-end), and 235 μL of the buffer solution contained the sample was added to each lower compartment (base-end).
(6) The upper and lower transits were merged up and then incubated at 37° C. for 2 h.
(7) After the incubation was finished, 50 μL of the samples from each well of the upper compartment and the lower compartment of the transwell culture plate were respectively added to new sample tubes. 200 μL of the acetonitrile containing the internal standard (100 nM Alprazolam, 200 nM Labetalol, 200 nM caffeine and 2 μM Ketoprofen) was added to each sample tube. After the sample tubes were vortexed for 10 min, they were centrifuged at 3220 g for 30 min. 100 μL of the supernatant was taken and diluted with the same volume of the water to perform the LC-MS/MS analysis. Each sample was adopted to the three parallel incubation.
The peak area was calculated by the result of the ion chromatography. The permeability coefficient (Papp, unit: cm/s×10^−6) of the compound was calculated by the formula: […]
In the formula, “VA” refers to the volume of the solution on the acceptor (Ap→Bl was 0.235 mL, and Bl→Ap was 0.075 mL), “Area” refers to the area of the permeable membrane of the 96-well transwell (0.143 cm^2), “time” refers to the incubation time (in second), “[drug]acceptor” refers to the drug concentration of the acceptor after the incubation, and “[drug]initial, donor” refers to the initial concentration of the drug administration before the incubation.
The efflux ratio was calculated by the following formula: […]
In the formula, “Papp (B-A)” refers to the permeability coefficient from the base-end to the top-end, and the term “Papp (A-B)” refers to the permeability coefficient from the top-end to the base-end.
The recovery was calculated by the following formula: […]
In the formula, “VA” refers to the volume of the solution on the acceptor (mL), “VD” refers to the volume of the solution on the donor (mL), “[drug]acceptor” refers to the drug concentration of the acceptor after the incubation, “[drug]donor” refers to the drug concentration of the donor after the incubation, and the term “[drug]initial, donor” refers to the initial concentration of the drug administration before the incubation.

[10] = tested on: human lung cancer NCI-H460 subcutaneous xenograft; experiment: Human lung cancer NCI-H460 subcutaneous xenograft model, compounds B and C; format: in vivo, BALB/c nude mice
Protocol: BALB/c nude mice were subcutaneously inoculated with human lung cancer NCI-H460 cells to establish human lung cancer subcutaneous transplantation tumor model. […] The positive drug Irinotecan 40 mg/kg group was administered by intraperitoneal injection once every 4 days for 7 times, and observed for 4 days.

[11] = tested on: mice; conditions: prior literature WO2016210175A1, CN108024974A; cited from earlier work
[12] = MDCK-MDR1, Recovery (%) AP-BL, verapamil 0 μM
[13] = MDCK-MDR1, Recovery (%) BL-AP, verapamil 0 μM
[14] = MDCK-MDR1, with verapamil 100 μM (in donor and acceptor buffer), Recovery (%) AP-BL, verapamil 100 μM
[15] = MDCK-MDR1, with verapamil 100 μM (in donor and acceptor buffer), Recovery (%) BL-AP, verapamil 100 μM

CNC(=O)c1cc(Oc2ccc(NC(=O)Nc3ccc(Cl)c(C(F)(F)F)c3)cc2)ccn1 [Sorafenib, reference compound]
cure rate ([1]; 30 mg/kg (Group 2)): 20% | relative tumor inhibition rate TGI (%) ([1]; 30 mg/kg, QD×21 Days, intragastric, Day 45): 48.11%

Nc1ccn([C@@H]2O[C@H](CO)[C@@H](O)C2(F)F)c(=O)n1 [Gemcitabine, reference compound]
relative tumor inhibition rate TGI (%) [2]: 45.31%

CC(C)[N+](C)(CCOC(=O)C1c2ccccc2Oc2ccccc21)C(C)C [Propanthine, reference compound]
Remaining percentage [3]: 0.07% and 3.32% | Remaining percentage [4]: 1.98% | Remaining percentage [5]: 54.38%

CC[C@H](C)C(=O)O[C@H]1C[C@@H](C)C=C2C=C[C@H](C)[C@H](CC[C@@H]3C[C@@H](O)CC(=O)O3)[C@H]21 [Lovastatin, reference compound]
Remaining percentage [6]: 0.21% and 0.19% | Remaining percentage [7]: 58.73%

CC(=O)O[C@H]1C(=O)[C@@]2(C)[C@H]([C@H](OC(=O)c3ccccc3)[C@]3(O)C[C@H](OC(=O)[C@H](O)[C@@H](NC(=O)c4ccccc4)c4ccccc4)C(C)=C1C3(C)C)[C@]1(OC(C)=O)CO[C@@H]1C[C@@H]2O [Paclitaxel, reference compound]
mean biofluorescence value [8]: 4184.52 E+05 photon/second

COc1cc2nc(N3CCN(C(=O)c4ccco4)CC3)nc(N)c2cc1OC [prazosin]
Papp A→B at 2 h [9]: 110 nm/s | Papp B→A at 2 h [9]: 318 nm/s | recovery at 2 h [9, 12]: 90.7% | recovery at 2 h [9, 13]: 78.5% | recovery at 2 h [9, 14]: 94.2% | recovery at 2 h [9, 15]: 88.5%

CCc1c2c(nc3ccc(OC(=O)N4CCC(N5CCCCC5)CC4)cc13)-c1cc3c(c(=O)n1C2)COC(=O)[C@]3(O)CC [Irinotecan, reference compound]
relative tumor inhibition rate TGI (%) ([10]; 40 mg/kg, Q4D×7, i.p., day 28): 79.03% | drug toxicity (weight loss / death) ([10]; at the tested dosage): a certain drug toxicity

COCCc1ccc(OCC(O)CNC(C)C)cc1 (centres unmarked) [Metoprolol]
Papp A→B at 2 h [9]: 276 nm/s | Papp B→A at 2 h [9]: 265 nm/s | recovery at 2 h [9, 12]: 96.2% | recovery at 2 h [9, 13]: 98.5%

C[C@H](OP(=O)(N1CC1)N1CC1)c1ccc([N+](=O)[O-])cc1 [TH2566]
MTD Result [11]: 2 mg/kg

C[C@@H](OP(=O)(N1CC1)N1CC1)c1ccc([N+](=O)[O-])cc1 [TH2565]
MTD Result [11]: 2 mg/kg

Cc1ccc(NC(=O)c2ccc(CN3CCN(C)CC3)cc2)cc1Nc1nccc(-c2cccnc2)n1 [Imatinib]
Papp A→B at 2 h [9]: 18.9 nm/s | Papp B→A at 2 h [9]: 305 nm/s | recovery at 2 h [9, 12]: 79% | recovery at 2 h [9, 13]: 63.4% | recovery at 2 h [9, 14]: 83% | recovery at 2 h [9, 15]: 87.6%
